Tests used:
[1] = system: Trypanosoma brucei brucei; assay: GSK_TCAKS: pIC50 Trypanosoma brucei viability assay using fluorescence intensity. Assay plates (1536-well) were prepared by dispensing 25nL of compound solution per well using an Echo acoustic dispenser (Labcyte).; assay type: functional, organism-based; details: Lister 427, 2 h
[2] = system: Trypanosoma brucei brucei; assay: GSK_TCAKS: pIC50 Trypanosoma brucei viability assay using luminiscence. Assay plates (1536-well) were prepared. T. brucei cultures were harvested and counted in a CASY cell counter. A parasite suspension was prepared at a final concentration of 5 * 10^4 cells/mL in complete HMI9 medium and 6uL was dispensed to all wells containing compounds using a Multidrop Combi dispenser. 6uL of HMI9 media with 0.4% DMSO were dispensed to control columns. Plates were incubated for 24 h at 37C, 5% CO2 then tempered for 10 min at room temperature. ATP content was quantified by adding 4 uL of CellTiter-Glo Reagent (Promega) according to the manufacturer's instructions. Luminescence was measured using a ViewLux.; assay type: functional, organism-based; details: Lister 427, CASY
Trypanosoma cruzi [3] = assay: (§1) GSK_TCAKS: pIC50 H2C9 Imaging: H9c2 Host Cardiomyocytes. […] Cells were then washed once with PBS before infection. T. cruzi trypomastigotes, collected at days 5 to 8 after infection from LLC-MK2 parasite infected cultures, were allowed to swim out for 4h at 37C from a centrifuged pellet (2,500 rpm/10 min/room temperature). Trypomastigotes were then collected and counted in a CASY Cell Counter. Trypomastigotes, in supplemented DMEM, were added to H9c2 cultures in a multiplicity of infection of 1 and incubated for 18 h. Cells were washed once with PBS before incubation of the infected H9c2 monolayer with trypsin (Life-Technologies) to detach cells from the flask. Cells were counted in a CASY Cell Counter using a 150 um capillary and their density set at 5 * 10^4 cells per mL in supplemented assay DMEM. Infected H9c2 were dispensed into 384-well poly-lysine coated assay plates at 50uL per well using a Multidrop Combi dispenser. After seeding them, the plates were incubated at 37C, 5% CO2 for 72h. Cultures were then fixed and stained by addition of 50 uL of a solution containing 8% formaldehyde and 4 uM DRAQ5 DNA dye (BioStatus, UK) per well. […] Five images were collected per well for reliable statistical analysis. Automated image analysis was performed with a script developed on Acapella High Content Imaging and Analysis Software (PerkinElmer). Output: Number of H9c2 Host Cardiomyocytes nuclei to determine drug-related cytotoxicity.; assay type: functional, organism-based, Rattus norvegicus; details: H9c2, 4 h
Leishmania donovani [4] = assay: GSK_TCAKS: pIC50 Leishmania donovani viability assay using fluorescence intensity. Assay plates (1536-well) were prepared by adding 30nL per well of compound. For single shot assay, the final compound concentration was 5uM. […] Briefly, eGFP LdBOB axenic amastigotes were harvested, fixed and counted in a CASY cell counter (Roche-Applied Science). A final concentration of 1.5 * 10^5 cells per well were prepared in amastigote media containing 500 U/mL penicillin/streptomycin (Invitrogen) and 6uL was dispensed to each experimental well using a Multidrop Combi dispenser (Thermo Scientific). 6uL of assay media was dispensed to control columns used as reference for 100% compound response. Following incubation for 72 h at 37C, 5% CO2, 2 uL of resazurin was added to each well at a final concentration of 0.5 mM in phosphate buffered saline (PBS) with IGEPAL (Sigma-Aldrich), 0.05% (v/v).; assay type: functional, organism-based
[5] = GSK_TCAKS: pIC50 HepG2 human cell line viability assay using luminiscence. […] Seeding density was checked to ensure that new mono-layers were not more than 50% confluent at the time of harvesting. Cell suspension was added to 500 mL of the same medium at a final density of 1.2 * 10^5 cells/mL. This cell suspension was dispensed (25 uL, 3000 cells per well) into 384-well clear-bottom plates using a Multidrop Combi dispenser. Prior to addition of the cell suspension, the screening compounds (250 nL) were pre-dispensed into the plates with an Echo liquid handler. Plates were incubated for 48 h at 37C, 5% CO2. After incubation, plates equilibrated at room temperature for 30 min before proceeding to develop the luminescent signal. The signal developer, CellTiter-Glo Reagent, was allowed to equilibrate at room temperature for 30 min and added to the plates (25uL per well) using a Multidrop Combi dispenser. Plates were left for 10 min at room temperature for stabilization and then read using a ViewLux.; assay type: toxicity, cell-based
Trypanosoma cruzi [6] = assay: GSK_TCAKS: pIC50 Trypanosoma cruzi viability assay using beta-GAL activity. This assay was run at single shot at 5uM compound concentration per well. The biological reagents consisted of NIH-3T3 host cells and trypomastigotes parasitic cells; both cell types were set to a 3.3 * 10^5 cells/mL dilution in assay DMEM by means of a CASY cell counter device using a 60um capillary. 6 uL of the mixture were dispensed per well (about 1 * 10^3 host-cells and 1 * 10^3 parasites) with a Multidrop Combi dispenser. […] In all wells, the percentage of DMSO never exceeded 0.5%. Plates incubated for four days at 37C, 5% CO2. The substrate used for the assay fluorescence intensity (FLINT) readout was resorufin-beta-D-galactopiranoside (Sigma-Aldrich) at 5uM per well. It was diluted in PBS supplemented with the soft detergent Igepal (Fluka).; assay type: functional, organism-based, Mus musculus; details: Tulahuen, NIH3T3
Trypanosoma cruzi [7] = assay: as §1, with “Trypanosoma cruzi” for “H2C9”, “Infected Cells.” for “H9c2 Host Cardiomyocytes.”, “percentage” for “Number”, “infected cells per well as a second infection marker.” for “H9c2 Host Cardiomyocytes nuclei to determine drug-related cytotoxicity.”; assay type: functional, organism-based, Rattus norvegicus; details: H9c2, 4 h
Leishmania donovani [8] = assay: (§2) GSK_TCAKS: pIC50 Leishmania donovani Imaging: Infected Macrophages. Assay plates (384-well) were prepared by adding 250nL of compound to each well. For single shot assay, the final compound concentration was 5 uM. […] Automated image analysis was performed with a script developed on Acapella High Content Imaging and Analysis Software (PerkinElmer). Output: Percent of infected macrophage cells were reported for each well.; assay type: functional, organism-based, Homo sapiens; details: THP-1
[9] = molecular target: Sterol 14-alpha demethylase (Trypanosoma cruzi (strain CL Brener), UniProt Q7Z1V1); assay: GSK_TCAKS: pIC50 CYP51 from Trypanosoma cruzi.; assay type: functional
Trypanosoma cruzi [10] = assay: as §1, with “Trypanosoma cruzi” for “H2C9”, “Amastigotes/Cell.” for “H9c2 Host Cardiomyocytes.”, “number” for “Number”, “amastigotes per cell as infection level measurement.” for “H9c2 Host Cardiomyocytes nuclei to determine drug-related cytotoxicity.”; assay type: functional, organism-based, Rattus norvegicus; details: H9c2, 4 h
Leishmania donovani [11] = assay: as §2, with “THP-1 Host” for “Infected”, “THP-1 cell count” for “Percent of infected macrophage cells”; assay type: functional, organism-based, Homo sapiens
Leishmania donovani [12] = assay: as §2, with “Amastigotes/Macrophages.” for “Infected Macrophages.”, “Average number” for “Percent”, “amastigotes per” for “infected”, “cell” for “cells”; assay type: functional, organism-based, Homo sapiens; details: THP-1

Chain of Sterol 14-alpha demethylase (Q7Z1V1 whole entry): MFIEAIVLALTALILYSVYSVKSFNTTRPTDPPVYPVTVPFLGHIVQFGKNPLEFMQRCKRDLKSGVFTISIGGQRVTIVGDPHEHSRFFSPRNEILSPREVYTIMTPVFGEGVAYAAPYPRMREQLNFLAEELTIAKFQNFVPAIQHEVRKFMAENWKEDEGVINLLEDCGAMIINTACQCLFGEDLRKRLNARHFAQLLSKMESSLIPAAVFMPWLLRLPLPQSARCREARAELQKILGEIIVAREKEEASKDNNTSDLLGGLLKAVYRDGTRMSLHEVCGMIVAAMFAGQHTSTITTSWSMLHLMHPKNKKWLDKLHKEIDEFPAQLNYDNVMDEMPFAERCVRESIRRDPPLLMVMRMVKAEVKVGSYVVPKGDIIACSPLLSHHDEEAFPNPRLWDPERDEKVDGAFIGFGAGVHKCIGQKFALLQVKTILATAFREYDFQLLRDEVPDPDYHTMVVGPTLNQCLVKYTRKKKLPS

Structure (SMILES)	IC50 [1]	IC50 [2]	IC50 (Trypanosoma cruzi [3])	IC50 (Leishmania donovani [4])	IC50 at 48 h [5]	IC50 (Trypanosoma cruzi [6])	IC50 (Trypanosoma cruzi [7])	IC50 (Leishmania donovani [8])	IC50 [9]	IC50 (Trypanosoma cruzi [10])	IC50 (Leishmania donovani [11])	IC50 (Leishmania donovani [12])
O=C(Nc1nc(-c2ccccn2)cs1)c1ccccc1-n1cnnn1	0.631 µM	0.631 µM	5.01 µM	3.16 µM	1.58 µM	3.55 µM	3.16 µM	6.31 µM	> 100 µM	2 µM	5.01 µM	3.98 µM
Cc1ccccc1CNC(=O)CN(Cc1ccccn1)Cc1ccccn1	6.31 µM	20 µM	> 79.4 µM	10 µM	> 158 µM	5.01 µM	15.8 µM	6.31 µM	100 µM	6.31 µM	> 79.4 µM	3.98 µM
O=C(CN(Cc1ccccn1)Cc1ccccn1)NC1Cc2ccccc2C1	20 µM	12.6 µM	> 79.4 µM	12.6 µM	> 158 µM	5.01 µM	12.6 µM	5.01 µM	79.4 µM	6.31 µM	> 79.4 µM	5.01 µM
CC(CCc1ccccc1)NC(=O)CN(Cc1ccccn1)Cc1ccccn1 (stereo not drawn)	10 µM	5.01 µM	> 79.4 µM	7.94 µM	> 158 µM	2.51 µM	10 µM	3.16 µM	63.1 µM	3.16 µM	20 µM	3.16 µM

From ChEMBL document CHEMBL3430912, “GSK Tres Cantos Anti-Kinetoplastid Screening (TCAKS) Data”
